Laboratory results published in US10688111B2, “Liquid formulations of compounds active at sulfonylurea receptors” (Biogen Chesapeake LLC, priority 2008, dated 2020).

Assay: Stability of glibenclamide injection formulations on storage
Assay type: physicochemical
Conditions: formulation with 5 mM meglumine at pH 9
Description: Glibenclamide stability was investigated by storing several formulations under different conditions for long periods of time. In particular, glibenclamide formulations suitable for injection were stored for up to six months and stability data for these formulations was obtained over that period of time.
This study assessed the relative stability of 4 batches of glibenclamide formulations suitable for injection. The following studies were conducted.
All storage cabinets were continually monitored for temperature and humidity using calibrated probes. After removal from long-term storage, all samples were stored at 2-8° C. protected from light while awaiting analysis.
At each time point, 2 vials of glibenclamide injections will be removed from the storage cabinet from the appropriate conditions and allowed to equilibrate to ambient temperature. This will be used to perform the analyses described above and will be stored under normal laboratory conditions throughout the duration of the analyses.
The formulations were inspected visually for appearance and for the presence of particulates. The pH of duplicate samples from separate vials was measured to determine formulation pH and to track changes, if any, over the course of time during the stability experiments.

- hydrolysis on storage (refrigerated samples stored at 2-8° C., FIG. 3A): hydrolysis was not seen
- physical stability (drug in solution) on storage (stored at 2-8° C.): remained in solution
- hydrolysis on storage (stored at elevated temperatures (25° C./60% RH, 40° C./75% RH), FIGS. 3B, 3C): some hydrolysis
SMILES: COc1ccc(Cl)cc1C(=O)NCCc1ccc(S(=O)(=O)NC(=O)NC2CCCCC2)cc1 [Glibenclamide, N-p-(2-[5-Chloro-2-methoxybenzamido]ethyl) benzenesulfonyl-N′-cyclohexylurea]
